Reference: paper PMC9336311 (Cell reports, 2022)

Key:
CaMKII kinase domain [1] = biological target: CaMKII kinase domain (Homo sapiens, UniProt Q9UQM7); assay: Coupled kinase assay with Syntide-2 as substrate; type: biochemical; conditions: saturating GluN2B S1303D or high levels of CaMKIIN
CaMKII kinase domain [2] = biological target: CaMKII kinase domain (Homo sapiens, UniProt Q9UQM7, D135N); assay: Fluorescence polarization competition assay against GluN2B; type: binding; conditions: FP competition, up to low millimolar concentrations
Sequence of CaMKII kinase domain (Homo sapiens, UniProt Q9UQM7, D135N) (Q9UQM7 7-274 D135N): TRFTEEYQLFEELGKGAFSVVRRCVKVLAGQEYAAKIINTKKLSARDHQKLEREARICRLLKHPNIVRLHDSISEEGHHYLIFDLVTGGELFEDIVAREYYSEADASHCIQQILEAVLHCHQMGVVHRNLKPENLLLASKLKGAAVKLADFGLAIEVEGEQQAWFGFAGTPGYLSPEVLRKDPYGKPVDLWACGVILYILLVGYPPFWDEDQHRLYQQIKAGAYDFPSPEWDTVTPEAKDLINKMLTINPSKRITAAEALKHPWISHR

[3] = biological target: CaMKII kinase domain (D135N) (Homo sapiens, UniProt Q9UQM7, D135N); assay: ITC binding to D135N CaMKII kinase domain; conditions: protein/peptide concentrations high enough to characterize a Kd of several hundred micromolar
Sequence of CaMKII kinase domain (D135N) (Q9UQM7 7-274 D135N): as above

Sequence of CaMKII kinase domain (Homo sapiens, UniProt Q9UQM7) (Q9UQM7 7-274): as the sequence (Q9UQM7 7-274 D135N) above, with N129D counted along it

effect on Syntide-2 phosphorylation (CaMKII kinase domain [1])	Sequence	competition with GluN2B peptide (CaMKII kinase domain [2])	binding in ITC [3]
completely inhibit	MSEILPYGEDKMGRFGADPEGSDLSFSCRLQDTNSFFAGNQAKRPPKLGQIGRAKRVVIEDDRIDDVLKGMGEKPPSGV [CaMKIIN]	–	–
–	PLARTLSVAGLPGKK [Syntide-2]	could not be competed off	did not see any appreciable binding
